Reference: ChEMBL document CHEMBL1139796, “Novel anti-tuberculosis agents from MCR libraries” (Bioorg Med Chem Lett, 2007)

Test system: Mycobacterium tuberculosis
Assay: Antimycobacterial activity against Mycobacterium tuberculosis at 12.5 ug/ml
Assay type: functional
Conditions: read-out: GI

First: C=CCNC(=O)C(C(C)C)N(CC=C)C(=O)c1cccnc1 (stereo not drawn)
Second: C=CCNC(=O)C(CCCC)N(CC=C)C(=O)c1cccnc1 (stereo not drawn)
The inhibition of growth at 12.5 µg/mL of the first is lower: 6% for the first, 100% for the second.

Compared with `C=CCNC(=O)C1(N(CC(C)(C)C)C(=O)c2cccnc2)CCN(Cc2ccccc2)CC1`, `C=CCNC(=O)C1(N(CCCn2ccnc2)C(=O)c2cccnc2)CCN(Cc2ccccc2)CC1` is higher in inhibition of growth at 12.5 µg/mL: 28% for the first, 46% for the second.

First: C=CCNC(=O)C(C(C)C)N(C(=O)c1cccnc1)C1CC1 (stereo not drawn)
Second: C=CCNC(=O)C(N(C(=O)c1cccnc1)C1CC1)C(Cl)(Cl)Cl (stereo not drawn)
The inhibition of growth at 12.5 µg/mL of the first is higher: 57% for the first, 9% for the second.

First: C=CCNC(=O)C(C)(c1ccccc1)N(C(=O)c1cccnc1)C1CC1 (stereo not drawn)
Second: C=CCNC(=O)C(C)(c1ccccc1)N(C(=O)c1cccnc1)C1CCCCC1 (stereo not drawn)
The inhibition of growth at 12.5 µg/mL of the first is higher: 72% for the first, 57% for the second.

First: C=CCNC(=O)C(N(C(=O)c1cccnc1)C(C)c1ccccc1)C(F)(F)F (stereo not drawn)
Second: C=CCNC(=O)C(N(C(=O)c1cccnc1)C(C)c1ccccc1)C(Cl)(Cl)Cl (stereo not drawn)
The inhibition of growth at 12.5 µg/mL of the first is higher: 90% for the first, 82% for the second.

First: C=CCNC(=O)C(N(Cc1ccncc1)C(=O)c1cccnc1)C(Cl)(Cl)Cl (stereo not drawn)
Second: C=CCNC(=O)C(CCCC)N(Cc1ccncc1)C(=O)c1cccnc1 (stereo not drawn)
The inhibition of growth at 12.5 µg/mL of the first is lower: 49% for the first, 96% for the second.

Going from `C=CCNC(=O)C(C)(C(C)C)N(CCCn1ccnc1)C(=O)c1cccnc1` (stereo not drawn) to `C=CCNC(=O)C(C=C)(CC)N(CCCn1ccnc1)C(=O)c1cccnc1` (stereo not drawn), the inhibition of growth at 12.5 µg/mL falls from 54% to 23%.

`C=CCNC(=O)C(N(CC=C)C(=O)c1cccnc1)C(F)(F)F` (stereo not drawn) and `C=CCNC(=O)C(N(CC=C)C(=O)c1cccnc1)C(Cl)(Cl)Cl` (stereo not drawn) are the same in inhibition of growth at 12.5 µg/mL: 6% for the first, 6% for the second.

Going from `C=CCNC(=O)C(C=C)(CC)N(CCCN1CCOCC1)C(=O)c1cccnc1` (stereo not drawn) to `C=CCNC(=O)C(C)(C)N(CCCN1CCOCC1)C(=O)c1cccnc1`, the inhibition of growth at 12.5 µg/mL rises from 31% to 70%.

Going from `C=CCNC(=O)C(C)(C)N(C(=O)c1cccnc1)C1CC1` to `C=CCNC(=O)C(C)(C(C)C)N(C(=O)c1cccnc1)C1CC1` (stereo not drawn), the inhibition of growth at 12.5 µg/mL rises from 64% to 67%.

Going from `C=CCNC(=O)C(N(CCCn1ccnc1)C(=O)c1cccnc1)C(F)(F)F` (stereo not drawn) to `C=CCNC(=O)C(N(CCCn1ccnc1)C(=O)c1cccnc1)C(Cl)(Cl)Cl` (stereo not drawn), the inhibition of growth at 12.5 µg/mL falls from 71% to 61%.

First: C=CCNC(=O)C(C)(C)N(Cc1ccncc1)C(=O)c1cccnc1
Second: C=CCNC(=O)C(C=C)(CC)N(Cc1ccncc1)C(=O)c1cccnc1 (stereo not drawn)
The inhibition of growth at 12.5 µg/mL of the first is higher: 51% for the first, 23% for the second.

First: C=CCNC(=O)C1(N(C(=O)c2cccnc2)C2CC2)CCCCC1
Second: C=CCNC(=O)C1(N(C(=O)c2cccnc2)C2CCCCC2)CCCCC1
The inhibition of growth at 12.5 µg/mL of the first is lower: 71% for the first, 76% for the second.

`C=CCNC(=O)C1(N(C(=O)c2cccnc2)C2CC2)CCCc2cc(OC)ccc21` (stereo not drawn) and `C=CCNC(=O)C1(N(CCCn2ccnc2)C(=O)c2cccnc2)CCCc2cc(OC)ccc21` (stereo not drawn) are the same in inhibition of growth at 12.5 µg/mL: 69% for the first, 69% for the second.

First: C=CCNC(=O)C(CCCCC)N(CCCn1ccnc1)C(=O)c1cccnc1 (stereo not drawn)
Second: C=CCNC(=O)C(CCCCC)N(C(=O)c1cccnc1)C(C)c1ccccc1 (stereo not drawn)
The inhibition of growth at 12.5 µg/mL of the first is lower: 82% for the first, 95% for the second.

Going from `C=CCNC(=O)C(C)(C(C)C)N(CC(C)(C)C)C(=O)c1cccnc1` (stereo not drawn) to `C=CCNC(=O)C(C)(c1ccccc1)N(CC(C)(C)C)C(=O)c1cccnc1` (stereo not drawn), the inhibition of growth at 12.5 µg/mL rises from 62% to 67%.

First: C=CCNC(=O)C1(N(CC(C)(C)C)C(=O)c2cccnc2)CCCCC1
Second: C=CCNC(=O)C(CCCC)N(C(=O)c1cccnc1)C1CCCCC1 (stereo not drawn)
The inhibition of growth at 12.5 µg/mL of the first is lower: 99% for the first, 100% for the second.

First: C=CCNC(=O)C(C=C)(CC)N(C(=O)c1cccnc1)C1CC1 (stereo not drawn)
Second: C=CCNC(=O)C(C=C)(CC)N(C(=O)c1cccnc1)C(C)c1ccccc1 (stereo not drawn)
The inhibition of growth at 12.5 µg/mL of the first is lower: 50% for the first, 73% for the second.

First: C=CCNC(=O)C1(N(C(=O)c2cccnc2)C2CCCCC2)CCN(Cc2ccccc2)CC1
Second: C=CCNC(=O)C(C(C)C)N(C(=O)c1cccnc1)C(C)c1ccccc1 (stereo not drawn)
The inhibition of growth at 12.5 µg/mL of the first is higher: 101% for the first, 77% for the second.
